Source: patent US8771973B2, “Methods for treating bleeding disorders using sulfated polysaccharides” (Baxter Healthcare S.A., priority 2004, dated 2014)
Marks after values point to notes of the source that are not given here.

What was measured:
Hem-A mice [1] = assay: First fucoidan study, survival of Hem-A mice after bleeding test; assay type: in vivo; conditions: vehicle 1/6
Experimental: Given the improved potency and magnitude of efficacy of fucoidan relative to PPS in some of the clotting assays described above, additional studies were performed in Hem-A mice with fucoidan. In the first study with fucoidan, nearly the same regimen as described for PPS was adopted, but with slightly different dose levels. Hem-A male mice were administered fucoidan at a dose of 0.1 or 1.0 mg/kg or saline subcutaneously twice daily for 4 days. On the morning of the 5th day, mice received a doubled dose of fucoidan prior to the bleeding test. Survival and animal behavior were evaluated for mice treated with fucoidan compared to vehicle controls.
In the first study, treatment of mice with fucoidan at a dose of 0.1 mg/kg appeared to be more efficacious than treatment at a dose of 1.0 mg/kg (survival at about 10 hours was 1/6 for vehicle, 4/6 for 0.1 mg/kg, and 3/6 for 1.0 mg/kg).

rabbits = conditions: intravenously at 10 mg/kg; cited from earlier work
TFPI = target: T1, TFPI (Homo sapiens, UniProt P10646); assay: dPT assay, inhibition of TFPI activity in Hem-A plasma without preincubation; assay type: biochemical; conditions: no preincubation; for clotting time, dPT: Hem-A + TFPI, HemA + TFPI 183, alone 45 seconds
T1 construct: purchased American Diagnostica (Stamford, Conn.)
T1 sequence (P10646 29-304): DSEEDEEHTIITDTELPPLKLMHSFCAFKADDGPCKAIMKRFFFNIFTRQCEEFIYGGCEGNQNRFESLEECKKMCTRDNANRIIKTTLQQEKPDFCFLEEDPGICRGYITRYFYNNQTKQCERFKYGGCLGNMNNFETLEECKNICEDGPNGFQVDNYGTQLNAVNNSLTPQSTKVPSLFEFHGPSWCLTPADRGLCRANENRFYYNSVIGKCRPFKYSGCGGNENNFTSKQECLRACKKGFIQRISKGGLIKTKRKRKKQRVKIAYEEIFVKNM
Experimental: The dPT assay used was a modified standard clinical PT assay (Nordfang et al. (1991) Thromb Haemost 66:464-467; Welsch et al. (1991) Thrombosis Research 64: 213-222). SIMPLASTIN EXCEL thromboplastin reagent (Organon Teknika) was reconstituted with the manufacturer's diluent and further diluted 1:100 in 0.9% saline. The thromboplastin reagent, 25 mM CaCl2, and plasma samples were pre-warmed to 37° C. before initiating the assay. 100 μl of thawed plasma was aliquoted into microcentrifuge tubes. […] 100 μl of the diluted thromboplastin reagent and 100 μl of 25 mM CaCl2 were added to fibrin cups (Fisher) prewarmed to 37° C. 100 μl of plasma (normal or hemophilic) containing the test agent or saline control was added to the fibrin cups containing the thromboplastin reagent and CaCl2 to initiate clotting. The time for plasma clotting was measured with a BBL FIBROSYSTEM fibrometer.
Experiments were repeated without a preincubation of the sulfated polysaccharides with TFPI prior to exposure to plasma. To extend the stringency of the test for NASP inhibition of TFPI activity, TFPI was added to the plasma before the NASP was added.

Hem-A mice [2] = assay: Second fucoidan study, fucoidan +/- FVIII, survival of Hem-A mice after tail vein transection; assay type: in vivo; conditions: fucoidan 0.1 mg/kg s.c. twice daily 4.5 days, FVIII 1.25% reconstitution 2 hours prior
Experimental: In a second study with fucoidan, combination therapy potential with factor VIII was evaluated. This study was performed as described above, except on the morning of the fifth day, mice received an intravenous bolus dose of 53 mU/mouse FVIII (about 1.25% of the normal level of FVIII) in a tail vein far up near the body. As before, the lateral tail vein, and not the artery, was transected 2 hours later at the region corresponding to a diameter of about 2.7 mm. […] Survival and clinical observations were recorded for 20-24 hours.

rats = conditions: subcutaneously; cited from earlier work
Hem-B mice [3] = assay: Survival after tail clip, PPS-treated Hem-B mice; assay type: in vivo; conditions: 0.06 mg/kg s.c. twice daily 4.5 days, vehicle 25, p = 0.07
Experimental: (§1) Hem-A mice (homozygous for the exon 16 FVIII KO allele) were licensed from John Hopkins University, and Hem-B mice (homozygous for the exon 1-3 FIX KO) were licensed from University of North Carolina at Chapel Hill. All animal procedures were performed according to “Guide for the Care and Use of Laboratory Animals” (National Research Council. Guide for the care and use of laboratory animals. Washington, D.C.: National Academy Press; 1996) and all procedures were reviewed and approved by an institutional animal care and use committee.
(§2) A. PPS Efficacy in Hem-A and Hem-B Mice The efficacy of PPS in improving clotting in Hem-A and Hem-B mice was tested. Hem-A and Hem-B male or female mice were administered PPS at a dose of 0.02, 0.06, or 0.2 mg/kg or saline vehicle subcutaneously twice daily for […]. On the morning of the fifth day after dosing, the tail was clipped 1 cm from the tip, and behavior and survival were monitored for the next 20-24 hours.

Hem-B mice [4] = assay: dPT clotting time of blood samples from Hem-B mice treated with PPS; assay type: in vivo; design: unit not given here
Experimental: The efficacy of PPS in improving clotting in Hem-B mice was further tested in dPT assays. All mice were bled prior to the study to establish baseline (pretest) clotting times. Mice (14 weeks old) were treated subcutaneously twice a day with PPS for 4.5 days at the following doses: 2, 0.3 and 0.06 mg/kg in a volume of 250 μl. Mice were bled after 4.5 days, and clotting times were determined from collected blood samples.

Hem-A mice [5] = assay: Survival after tail clip, PPS-treated Hem-A mice; assay type: in vivo
Experimental: as §1, §2

## Fucoidan
Hem-A mice [1]; 0.1 mg/kg s.c. twice daily
  survival at about 10 hours: 4/6
Hem-A mice [1]; 1.0 mg/kg s.c. twice daily
  survival at about 10 hours: 3/6
rabbits
  tolerability: well-tolerated
TFPI; 0.8 nM
  clotting time, dPT: 210 s
TFPI; 4 nM
  clotting time, dPT: 78 s
TFPI; 20 nM
  clotting time, dPT: 59 s
TFPI; 100 nM
  clotting time, dPT: 54 s
TFPI; 500 nM
  clotting time, dPT: 90 s
TFPI; Hem A plasma + TFPI
  concentration window for significant clotting acceleration: greater than 100 fold
Hem-A mice [2]; 9 hr after tail vein incision, vehicle 21
  % Survival 9 hr: 61 * %
Hem-A mice [2]; 20 hr after tail vein incision, vehicle 7
  % Survival 20 hr: 38 ^+ %

## Pentosan Polysulphate Sodium [PPS]
rats
  doses required to prolong clotting: > 5 mg/kg
Hem-B mice [3]
  % Survival (20 hours post-cut): 44 ^# %
Hem-B mice [4]; 0.06 mg/kg s.c. twice a day
  Mean clotting time at 4.5 days: 37
Hem-B mice [4]; 0.3 mg/kg s.c. twice a day
  Mean clotting time at 4.5 days: 38
Hem-B mice [4]; 2.0 mg/kg s.c. twice a day
  Mean clotting time at 4.5 days: 44
TFPI; 0.8 nM
  clotting time, dPT: 192 s
TFPI; 4 nM
  clotting time, dPT: 156 s
TFPI; 20 nM
  clotting time, dPT: 81 s
TFPI; 100 nM
  clotting time, dPT: 76 s
TFPI; 500 nM
  clotting time, dPT: 73 s
Hem-A mice [5]; 0.02 mg/kg s.c. twice daily 4.5 days, vehicle 25
  % Survival (20 hours post-cut): 20 ^ %
Hem-A mice [5]; 0.06 mg/kg s.c. twice daily 4.5 days, vehicle 25, p = 0.07
  % Survival (20 hours post-cut): 44 ^# %
Hem-A mice [5]; 0.06 mg/kg, not statistically significant (0.05<p<0.1)
  improvement in survival: nearly two-fold improvement in survival
Hem-A mice [5]; 0.2 mg/kg s.c. twice daily 4.5 days, vehicle 25
  % Survival (20 hours post-cut): 40 ^ %
